US11220503B2, “Phthalazine derivatives, preparation method, pharmaceutical composition and usage thereof” (Shanghai SIMR Biotech Co., Ltd., priority 2015, dated 2022)

Key:
α5β3γ2 receptor [1] = target: T1, α5β3γ2 receptor (Homo sapiens, UniProt P18507+P31644); assay: Supplementary data for cell level screening: new electrophysiology method (I. Lecker et al); format: cell-based; conditions: for Inverse agonism efficacy(%): new method, CsCl intracellular solution, GABA 0.1˜0.3 CM, other procedures as previous method; for inverse agonism efficacy of the compound/α5IA inverse agonism efficacy: ratio to the α5IA reference run above in the table (r4 or r29)
T1 construct: expressed in transfected cells; host or cells: HEK-293 (stably transfected)
Protocol: The inventors used electrophysiological methods to assay the inverse agonist efficacy of the substance to be tested. The detailed procedures are as follows: (1) Different subunits of GABAA receptors were expressed in human embryonic kidney cells 293 (HEK293). The cells were cultured in a culture medium and used as a cell model for screening potential analgesics. The α, β and γ subunits are necessary to form complete functional GABAA receptors. In this example, the inventor has established the following cell model: (a) α5 subunit (protein sequence is GenBank accession number: NP_001158509), β3 subunit (protein sequence is GenBank accession number: NP_068712) and γ2 subunit (protein sequence is GenBank accession number: NP_944494) were expressed in HEK-293 cell lines at the same time, which formed the complete functional GABAA receptors. (2) Cells were stably transfected HEK-293 cells expressing α5β3γ2 receptor, which were labeled by green fluorescent protein (GFP). Cells were grown in 10 cm dishes. The cells were passaged after reaching 80-90% confluence. During passaging, the culture medium was removed and discarded, 3 mL DMEM medium (Gibco™) was added to the dishes, the dishes were shaken slightly, and DMEM was removed and discarded. 3 mL Trypsin (Trypsin-EDTA 0.05%, Gibco™) was added and cells were digested at 37° C. for 3 minutes. Then 3 mL complete growth medium (DMEM+10% horse serum (Gibco™)) was added and the cells at the bottom of the culture dishes were dispersed. The cell suspension were transferred to a 15 mL centrifugal tube (Corning®) and then centrifuged at 200 g for 3 minutes. The supernatant was discarded, 4 mL complete growth medium was added, and the cells were resuspended by gently blowing. The cell suspension was diluted by 1:5 or 1:10 for subculturing. The cell suspension was diluted by 1:12 for electrophysiology experiment, which are added to the 24 well plate (Corning®) which has a glass slide pre-treated with poly-D-lysine. The cells were adhered to the slide before the experiment was conducted. The cells were maintained in culture for no more than 24 hours before use. (3) Compound concentration: for screening, all compounds were diluted to a final concentration of 100 nM. […] The compounds were at the concentration of 1 nM, 10 nM, 50 nM, 100 nM and 1000 nM in dose-inverse agonism efficacy (%) experiment. The whole cell patch clamp technique was used in electrophysiology experiments. The extracellular solution (ECS) contained: 150 mM NaCl, 5 mM KCl, 2.5 mM CaCl2, 1 mM MgCl2, 10 mM HEPES and 10 mM glucose (pH 7.4); […], 5 mM EGTA, 10 mM HEPES ([…] water). The currents were recorded by an EPC-10 amplifier and the PatchMaster software (HEKA). Patch electrodes with a resistance of 5-6 MΩ were pulled from borosilicate glass (Sutter). The diluted compounds were perfused by OCTAFLOWII system. GFP positive and independently growing cells were selected for recording. During recording, the membrane voltage was clamped at −60 mV. During experiment, the cells were firstly perfused with ECS for 20 seconds. When the baseline reached to a stable state, cells were then perfused with GABA solution. Then the current induced by GABA can be detected. After about 20-40 seconds, the current was stable. ECS was switched to compounds solution and the effects of the compounds were detected. At last, the perfusion solution was switched to ECS. The experiment was finished when the post-baseline returned to the pre-baseline before compounds perfusion. Only the data whose pre-baseline and post-baseline are at almost the same level were used for analysis. […] Then, compounds were diluted at the desired concentration in GABA ECS. (4) Currents were analyzed with the PatchMaster (HEKA) software. The GABA currents before (Ipre) and after (Ipost) compounds perfusion were recorded respectively. The efficacies of compounds were calculated by the following equation: inverse agonism efficacy=(Ipost-Ipre)*100/Ipre. N indicates experiment numbers. […]

α5β3γ2 receptor [2] = target: T1, α5β3γ2 receptor; assay: Cell level screening: whole cell patch clamp, inverse agonist efficacy; format: cell-based; conditions: for inhibition at 0.1 µM: HEK293, compound 100 nM, GABA 0.05-0.1 μM, HEK293 α5β3γ2, clamped at −60 mV, (Ipost-Ipre)*100/Ipre, read-out: inverse agonism efficacy(%); for inverse agonism efficacy of the compound/α5IA inverse agonism efficacy: ratio to α5IA, compound 100 nM
Protocol: The inventors used electrophysiological methods to assay the inverse agonist efficacy of the substance to be tested. The detailed procedures are as follows: (1) Different subunits of GABAA receptors were expressed in human embryonic kidney cells 293 (HEK293). The cells were cultured in a culture medium and used as a cell model for screening potential analgesics. The α, β and γ subunits are necessary to form complete functional GABAA receptors. In this example, the inventor has established the following cell model: (a) α5 subunit (protein sequence is GenBank accession number: NP_001158509), β3 subunit (protein sequence is GenBank accession number: NP_068712) and γ2 subunit (protein sequence is GenBank accession number: NP_944494) were expressed in HEK-293 cell lines at the same time, which formed the complete functional GABAA receptors. (2) Cells were stably transfected HEK-293 cells expressing α5β3γ2 receptor, which were labeled by green fluorescent protein (GFP). Cells were grown in 10 cm dishes. The cells were passaged after reaching 80-90% confluence. During passaging, the culture medium was removed and discarded, 3 mL DMEM medium (Gibco™) was added to the dishes, the dishes were shaken slightly, and DMEM was removed and discarded. 3 mL Trypsin (Trypsin-EDTA 0.05%, Gibco™) was added and cells were digested at 37° C. for 3 minutes. Then 3 mL complete growth medium (DMEM+10% horse serum (Gibco™)) was added and the cells at the bottom of the culture dishes were dispersed. The cell suspension were transferred to a 15 mL centrifugal tube (Corning®) and then centrifuged at 200 g for 3 minutes. The supernatant was discarded, 4 mL complete growth medium was added, and the cells were resuspended by gently blowing. The cell suspension was diluted by 1:5 or 1:10 for subculturing. The cell suspension was diluted by 1:12 for electrophysiology experiment, which are added to the 24 well plate (Corning®) which has a glass slide pre-treated with poly-D-lysine. The cells were adhered to the slide before the experiment was conducted. The cells were maintained in culture for no more than 24 hours before use. (3) Compound concentration: for screening, all compounds were diluted to a final concentration of 100 nM. GABA was diluted at the concentration of 0.05-0.1 μM. The compounds were at the concentration of 1 nM, 10 nM, 50 nM, 100 nM and 1000 nM in dose-inverse agonism efficacy (%) experiment. The whole cell patch clamp technique was used in electrophysiology experiments. The extracellular solution (ECS) contained: 150 mM NaCl, 5 mM KCl, 2.5 mM CaCl2, 1 mM MgCl2, 10 mM HEPES and 10 mM glucose (pH 7.4); Patch electrodes were filled with an intracellular solution containing: 140 mM KCl, 5 mM EGTA, 10 mM HEPES (adjusted to pH 7.4 with KOH and to 320-330 mOsm with water). The currents were recorded by an EPC-10 amplifier and the PatchMaster software (HEKA). Patch electrodes with a resistance of 5-6 MΩ were pulled from borosilicate glass (Sutter). The diluted compounds were perfused by OCTAFLOWII system. GFP positive and independently growing cells were selected for recording. During recording, the membrane voltage was clamped at −60 mV. During experiment, the cells were firstly perfused with ECS for 20 seconds. When the baseline reached to a stable state, cells were then perfused with GABA solution. Then the current induced by GABA can be detected. After about 20-40 seconds, the current was stable. ECS was switched to compounds solution and the effects of the compounds were detected. At last, the perfusion solution was switched to ECS. The experiment was finished when the post-baseline returned to the pre-baseline before compounds perfusion. Only the data whose pre-baseline and post-baseline are at almost the same level were used for analysis. GABA was diluted at the concentration of 0.05-0.1 μM in ECS. Then, compounds were diluted at the desired concentration in GABA ECS. (4) Currents were analyzed with the PatchMaster (HEKA) software. […]

T1 sequence (P31644 32-462): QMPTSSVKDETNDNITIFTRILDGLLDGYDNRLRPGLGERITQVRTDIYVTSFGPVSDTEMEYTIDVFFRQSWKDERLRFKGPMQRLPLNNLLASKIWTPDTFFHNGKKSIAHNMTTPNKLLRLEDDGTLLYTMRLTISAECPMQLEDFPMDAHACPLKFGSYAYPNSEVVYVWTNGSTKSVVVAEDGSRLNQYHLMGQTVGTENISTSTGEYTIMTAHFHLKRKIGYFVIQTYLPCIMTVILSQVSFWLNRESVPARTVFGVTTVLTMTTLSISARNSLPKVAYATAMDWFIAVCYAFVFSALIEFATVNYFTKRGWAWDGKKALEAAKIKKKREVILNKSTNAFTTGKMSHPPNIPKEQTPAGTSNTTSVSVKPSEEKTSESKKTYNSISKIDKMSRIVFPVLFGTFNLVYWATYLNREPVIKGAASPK
T1 sequence (P28472 26-473 isoform P28472-2 partner limits assumed): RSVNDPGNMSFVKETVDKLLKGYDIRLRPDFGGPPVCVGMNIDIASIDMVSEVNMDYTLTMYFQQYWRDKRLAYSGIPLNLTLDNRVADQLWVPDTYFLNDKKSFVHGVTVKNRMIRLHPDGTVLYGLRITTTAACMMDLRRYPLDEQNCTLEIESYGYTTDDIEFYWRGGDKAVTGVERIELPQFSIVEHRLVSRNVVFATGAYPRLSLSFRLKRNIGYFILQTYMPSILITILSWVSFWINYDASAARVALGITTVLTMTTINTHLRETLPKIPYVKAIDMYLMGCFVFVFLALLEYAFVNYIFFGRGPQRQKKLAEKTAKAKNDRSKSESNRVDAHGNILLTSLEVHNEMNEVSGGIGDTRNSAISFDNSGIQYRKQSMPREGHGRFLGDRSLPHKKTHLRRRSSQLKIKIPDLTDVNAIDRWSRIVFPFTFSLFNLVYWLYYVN
T1 sequence (P18507 40-475): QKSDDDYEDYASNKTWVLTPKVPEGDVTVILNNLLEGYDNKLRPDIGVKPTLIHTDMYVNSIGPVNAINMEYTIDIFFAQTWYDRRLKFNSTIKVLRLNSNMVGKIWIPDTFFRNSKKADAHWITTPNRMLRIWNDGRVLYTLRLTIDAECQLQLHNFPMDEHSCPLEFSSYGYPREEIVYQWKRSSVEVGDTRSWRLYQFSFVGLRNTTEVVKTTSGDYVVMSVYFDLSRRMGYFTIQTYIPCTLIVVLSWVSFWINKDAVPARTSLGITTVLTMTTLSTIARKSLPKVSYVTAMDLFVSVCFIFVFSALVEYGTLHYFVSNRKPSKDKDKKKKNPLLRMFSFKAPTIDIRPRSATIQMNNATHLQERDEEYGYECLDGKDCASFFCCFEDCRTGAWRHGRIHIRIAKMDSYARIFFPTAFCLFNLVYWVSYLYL

Structure (SMILES)	Inverse agonism efficacy(%) (α5β3γ2 receptor [1])	inverse agonism efficacy of the compound/α5IA inverse agonism efficacy (α5β3γ2 receptor [1])	inhibition at 0.1 µM (α5β3γ2 receptor [2])	inverse agonism efficacy of the compound/α5IA inverse agonism efficacy (α5β3γ2 receptor [2])
Cc1cc(-c2nnc3c4ccccc4c(OCc4ccc(C(=O)NN5CCOCC5)cn4)nn23)no1 [Compound 01, 6-((3-(5-methylisoxazol-3-yl)-[1,2,4]triazolo[3,4-a]phthalazin-6-yloxy)methyl)-N-morpholinonicotinamide]	−18.67%	1.075	58%	2.572
CC(C)NC(=O)c1ccc(COc2nn3c(-c4cc(CO)on4)nnc3c3ccccc23)nc1 [Compound 38, 6-(((3-(5-(hydroxymethyl)isoxazol-3-yl)-[1,2,4]triazolo[3,4-a]phthalazin-6-yl)oxy)methyl)-N-iso propylnicotinamide]	−52.5%	3.023	40%	1.774
O=C(NCCO)c1ccc(COc2nn3c(-c4cc(CO)on4)nnc3c3ccccc23)nc1 [Compound 39, N-(2-hydroxyethyl)-6-(((3-(5-(hydroxymethyl)isoxazol-3-yl)-[1,2,4]triazolo[3,4-a]phthalazin-6-yl)oxy)methyl)nicotinamide]	−26%	1.497	49%	2.174
O=C(c1ccc(COc2nn3c(-c4cc(CO)on4)nnc3c3ccccc23)nc1)N1CCS(=O)(=O)CC1 [Compound 40, (1,1-dioxidothiomorpholino)(6-(((3-(5-(hydroxymethyl)isoxazol-3-yl)-[1,2,4]triazolo[3,4-a]phthalazin-6-yl)oxy)methyl)pyridin-3-yl)methanone]	−25.5%	1.468	29%	1.286
COCCNC(=O)c1ccc(COc2nn3c(-c4cc(CO)on4)nnc3c3ccccc23)nc1 [Compound 43, 6-(((3-(5-(hydroxymethyl)isoxazol-3-yl)-[1,2,4]triazolo[3,4-a]phthalazin-6-yl)oxy)methyl)-N-(2-methoxyethyl)nicotinamide]	−35%	2.015	27.9%	1.239
O=C(NC1CCOC1)c1ccc(COc2nn3c(-c4cc(CO)on4)nnc3c3ccccc23)nc1 (stereo not drawn) [Compound 47, 6-(((3-(5-(hydroxymethyl)isoxazol-3-yl)-[1,2,4]triazol[3,4-a]phthalazin-6-yl)oxy)methyl)-N-(tetrahydrofuran-3-yl)nicotinamide]	−26.875%	1.547	51.5%	2.284

Continued, values first:

Inverse agonism efficacy(%) (α5β3γ2 receptor [1])	inverse agonism efficacy of the compound/α5IA inverse agonism efficacy (α5β3γ2 receptor [1])	inhibition at 0.1 µM (α5β3γ2 receptor [2])	inverse agonism efficacy of the compound/α5IA inverse agonism efficacy (α5β3γ2 receptor [2])	Structure (SMILES)
−21.33%	1.229	52.2%	2.313	Cc1cc(-c2nnc3c4ccccc4c(OCc4ccc(C(=O)N[C@H](C)CO)cn4)nn23)no1 [Compound 02, (R)—N-(1-hydroxypropan-2-yl)-6-((3-(5-methylisoxazol-3-yl)-[1,2,4]triazolo[3,4-a]phthalazin-6-yloxy)methyl)nicotinamide]
−29.33%	1.689	41.3%	1.832	Cc1cc(-c2nnc3c4ccccc4c(OCc4ccc(C(=O)N[C@H]5CCC[C@@H]5O)cn4)nn23)no1 [Compound 03, N-((1S,2S)-2-hydroxycyclopentyl)-6-(((3-(5-methylisoxazol-3-yl)-[1,2,4]triazolo[3,4-a]phthalazin-6-yl)oxy)methyl)nicotinamide]
−20%	1.151	43.2%	1.915	O=C(NC1CCC1)c1ccc(COc2nn3c(-c4cc(CO)on4)nnc3c3ccccc23)nc1 [Compound 48, N-cyclobutyl-6-(((3-(5-(hydroxymethyl)isoxazol-3-yl)-[1,2,4]triazolo[3,4-a]phthalazin-6-yl)oxy)methyl)nicotinamide]
